Where “and” joins values, the source holds several entries; their conditions need not be identical. Identical values can stand only once. Counter-ions that a name gives are not always drawn.
What follows are compounds tested on parent strain (SAWy518).

SMILES | OffScreen_percentage [percentage] | Offscreen_18hr | Offscreen_24hr | Offscreen_42hr | Offtarget | Offtarget_sub | Read_percentage [percentage]
CCCc1c(-c2ccc(O)cc2)nn(-c2ccc(O)cc2)c1-c1ccc(O)cc1 | 98.9963 | 0.7989 | 0.9026 | 0.9515 | – | – | –
CC(C)Cn1c(=O)n(C)c(=O)c2[nH]cnc21 [3-Isobutyl-1-methylxanthine, reference compound] | – | – | – | – | NO | 0.4308 | –
O=C(/C=C/c1ccccc1)c1ccc(O)cc1 [4'-HYDROXYCHALCONE] | – | 0.7341 | 0.8731 | 0.9266 | – | – | –
O=C(/C=C/c1ccc(O)cc1)c1ccccc1 [4-hydroxychalcone, reference compound] | 103.693 | 0.8368 | 0.9201 | 0.9804 | – | – | 103.693
CC[n+]1c(/C=C/C=C2/N(C)c3ccccc3C2(C)C)sc2ccccc21.[I-] [AC-93253 iodide] | – | 0.3559 | 0.5533 | 0.821 | – | – | –
C[n+]1c2cc(N)ccc2cc2ccc(N)cc21.[Cl-] [ACRIFLAVINIUM HYDROCHLORIDE] | – | 0.6168 | 0.8008 | 0.904 | – | – | –
Nc1c2ccccc2nc2ccccc12 [AMINACRINE] | – | 0.3466 | 0.4931 | 0.7904 | – | – | –
Br.Br.N=C(N)SCCN [AMINOETHYLISOTHIOUREA DIHYDROBROMIDE] | – | 0.0502 | 0.0525 | 0.1802 | – | – | –
C[C@@H]1CC[C@H]2[C@@H](C)C(=O)O[C@@H]3O[C@@]4(C)CC[C@@H]1[C@]32OO4 [ARTEMISININ] | – | 0.4969 | 0.7016 | 0.8396 | – | – | –
O=C1NC(=O)/C(=C/c2ccc(-c3ccc(F)cc3O)o2)S1 [AS-252424] | – | 0.6896 | 0.8289 | 0.8951 | – | – | –
CCCCc1oc2ccccc2c1C(=O)c1cc(I)c(OCCN(CC)CC)c(I)c1 [Amiodarone hydrochloride] | – | 0.3754 | 0.6492 | 0.9258 | – | – | –
N.S=C(S)N1CCCC1 [Ammonium pyrrolidinedithiocarbamate] | – | 0.6686 | 0.8623 | 0.942 | – | – | –
CO[C@H]1O[C@@H]2O[C@@]3(C)CC[C@H]4[C@H](C)CC[C@@H]([C@H]1C)[C@@]24OO3 [Artemether] | – | 0.3535 | 0.4688 | 0.7035 | – | – | –
Cc1ccc(S(=O)(=O)/C=C/C#N)cc1 [BAY 11-7082 (BAY 11-7821)] | – | 0.151 | 0.3413 | 0.9249 | – | – | –
CCCCCCCCCCCCC[N+](C)(C)Cc1ccccc1.[Cl-] [BENZALKONIUM CHLORIDE] | – | 0.0504 | 0.056 | 0.5903 | – | – | –
CCc1oc2ccccc2c1C(=O)c1cc(Br)c(O)c(Br)c1 [BENZBROMARONE] | – | 0.5194 | 0.7137 | 0.8516 | – | – | –
COc1ccc(-c2coc3cc(OC(C)=O)cc(OC(C)=O)c3c2=O)cc1 [BIOCHANIN A DIACETATE] | – | 0.8079 | 0.8835 | 0.9447 | – | – | –
Cc1ccc(S(=O)(=O)/C=C/C#N)cc1 [Bay 11-7082] | – | 0.1157 | 0.2743 | 0.896 | – | – | –
CC(C)(C)c1ccc(S(=O)(=O)/C=C/C#N)cc1 [Bay 11-7085] | – | 0.0422 and 0.0395 | 0.0424 and 0.04 | – | – | – | –
Cc1c(N)nc([C@H](CC(N)=O)NC[C@@H](N)C(N)=O)nc1C(=O)N[C@H](C(=O)N[C@@H](C)[C@H](O)[C@@H](C)C(=O)N[C@@H](C(=O)NCCc1nc(-c2nc(C(=O)NCCC[S+](C)C)cs2)cs1)[C@@H](C)O)C(O[C@H]1O[C@H](CO)[C@H](O)[C@@H](O)[C@H]1O[C@H]1O[C@H](CO)[C@@H](O)[C@H](OC(N)=O)[C@@H]1O)c1c[nH]cn1.O=S(=O)([O-])O (some centres unmarked) [Bleomycin sulfate] | – | 0.261 | 0.4579 | 0.8554 | – | – | –
CC(C(=O)O)c1ccc2c(c1)[nH]c1ccc(Cl)cc12 (centres unmarked) [CARPROFEN] | – | 0.7281 | 0.8523 | 0.8964 | – | – | –
O=C1C(Cl)=C(Cl)C(=O)C(Cl)=C1Cl [CHLORANIL] | – | 0.1832 | 0.4077 | 0.9247 | – | – | –
N#Cc1c(Cl)c(Cl)c(Cl)c(C#N)c1Cl [CHLOROTHALONIL] | – | 0.6512 | 0.8372 | 0.9297 | – | – | –
Clc1ccccc1C(c1ccccc1)(c1ccccc1)n1ccnc1 [CLOTRIMAZOLE] | – | 0.0789 | 0.1029 | 0.8087 | – | – | –
Oc1c(Cl)cc(Cl)c2cccnc12 [Capitrol] | – | 0.0472 | 0.0467 | 0.0526 | – | – | –

SMILES | OffScreen_percentage [percentage] | Offscreen_18hr | Offscreen_24hr | Offscreen_42hr | Offtarget | Offtarget_sub | Read_percentage [percentage]
[H]/N=C(\N/C(=N/[H])NCCCCCCNC(=N)NC(=N)Nc1ccc(Cl)cc1)Nc1ccc(Cl)cc1 [Chlorhexidine hydrochloride] | – | 0.5517 | 0.7908 | 0.9568 | – | – | –
CCN(CC)CCOc1ccc(C(=C(Cl)c2ccccc2)c2ccccc2)cc1 [Clomifene citrate] | – | 0.6687 | 0.875 | 0.9713 | – | – | –
N#Cc1ccc(Oc2ccc3c(c2)COB3O)cc1 [Crisaborole] | – | 0.594 | 0.7965 | 0.9431 | – | – | –
Oc1ccc(Cl)cc1Cc1cc(Cl)ccc1O [DICHLOROPHEN] | – | 0.5869 | 0.7921 | 0.8823 | – | – | –
C=CC(C1=CC(=O)C(OC)=CC1=O)c1ccc(O)cc1 (centres unmarked) [Dalbergione,4-methoxy-4-hydroxy-] | 102.367 | 0.8261 | 0.9183 | 0.9703 | – | – | 102.367
CCN(CC)C(=S)SSC(=S)N(CC)CC [Disulfiram] | – | 0.0526 | 0.0614 | 0.7775 | – | – | –
COc1cccc2c1C(=O)c1c(O)c3c(c(O)c1C2=O)C[C@@](O)(C(=O)CO)C[C@H]3O[C@H]1C[C@H](N)[C@H](O)[C@H](C)O1.Cl [Doxorubicin (Adriamycin)] | – | 0.4346 | 0.6005 | 0.8771 | – | – | –
O=c1c2ccccc2[se]n1-c1ccccc1 [EBSELEN] | – | 0.0405 | 0.0408 | 0.0412 | – | – | –
C=CCOC(Cn1ccnc1)c1ccc(Cl)cc1Cl.O=S(=O)(O)O (centres unmarked) [ENILCONAZOLE SULFATE] | – | 0.81 | 0.8908 | 0.9485 | – | – | –
O=C([O-])c1ccccc1-c1c2cc(I)c(=O)c(I)c-2oc2c(I)c([O-])c(I)cc12.[Na+].[Na+] [ERYTHROSINE SODIUM] | – | 0.8136 | 0.8985 | 0.9466 | – | – | –
O=C(O)Cc1ccc(-c2ccccc2)cc1 [FELBINAC] | – | 0.6742 | 0.7657 | 0.7971 | – | – | –
OC(Cn1cncn1)(Cn1cncn1)c1ccc(F)cc1F [FLUCONAZOLE] | – | 0.7681 | 0.8873 | 0.9468 | – | – | –
Nc1[nH]c(=O)ncc1F [FLUCYTOSINE] | – | 0.7196 | 0.8771 | 0.9452 | – | – | –
CCCCCCCCc1ccc(CCC(N)(CO)CO)cc1.Cl [Fingolimod (FTY720)] | – | 0.0535 | 0.0624 | 0.7799 | – | – | –
COc1ncc(-c2ccc3nccc(-c4ccnnc4)c3c2)cc1NS(=O)(=O)c1ccc(F)cc1F [GSK2126458 (GSK458)] | – | 0.433 | 0.6688 | 0.9364 | – | – | –
CCCCCCc1ccc(O)cc1O [HEXYLRESORCINOL] | – | 0.6446 | 0.822 | 0.8874 | – | – | –
O=C(Nc1cc(C(F)(F)F)cc(C(F)(F)F)c1)c1cc(Cl)ccc1O [IMD 0354] | – | 0.1675 | 0.2933 | 0.8452 | – | – | –
CCC(Cc1c(I)cc(I)c(N)c1I)C(=O)O (centres unmarked) [IOPANIC ACID] | – | 0.6491 | 0.7855 | 0.8261 | – | – | –
Oc1ccc2ccccc2c1SSc1c(O)ccc2ccccc12 [IPA-3] | – | 0.0457 | 0.0481 | 0.1263 | – | – | –
CCC(C)n1ncn(-c2ccc(N3CCN(c4ccc(OC[C@H]5CO[C@](Cn6cncn6)(c6ccc(Cl)cc6Cl)O5)cc4)CC3)cc2)c1=O.Cl.Cl (some centres unmarked) [ITRACONAZOLE HYDROCHLORIDE] | – | 0.8063 | 0.8859 | 0.9404 | – | – | –
CC(=O)[C@]1(O)Cc2c(O)c3c(c(O)c2[C@@H](O[C@H]2C[C@H](N)[C@H](O)[C@H](C)O2)C1)C(=O)c1ccccc1C3=O [Idarubicin HCl] | – | 0.1605 | 0.1891 | 0.402 | – | – | –
CC(=O)[C@]1(O)Cc2c(O)c3c(c(O)c2[C@@H](O[C@H]2C[C@H](N)[C@H](O)[C@H](C)O2)C1)C(=O)c1ccccc1C3=O [Idarubicin] | – | 0.154 | 0.1842 | 0.3602 | – | – | –
O=C1Nc2ccccc2/C1=C1/Nc2ccccc2/C1=N\O [Indirubin-3'-oxime] | – | 0.6559 | 0.8248 | 0.9006 | – | – | –
CC(C)NNC(=O)c1ccncc1.O=P(O)(O)O [Iproniazid phosphate, reference compound] | – | – | – | – | NO | 0.4143 | –
CCC(C)n1ncn(-c2ccc(N3CCN(c4ccc(OC[C@H]5CO[C@](Cn6cncn6)(c6ccc(Cl)cc6Cl)O5)cc4)CC3)cc2)c1=O (some centres unmarked) [Itraconazole (Sporanox)] | – | 0.7339 | 0.8546 | 0.8998 | – | – | –

Source: publication PMC11637378, “Optogenetic screening of MCT1 activity implicates a cluster of non-steroidal anti-inflammatory drugs (NSAIDs) as inhibitors of lactate transport” (PLOS ONE, 2024)
